{"source": "patent US4133826A", "about": "“Novel inversion process” (Roussel UCLAF, priority 1976, dated 1979)", "key": {"[1]": {"system": "domestic flies (houseflies)", "test": "Activity against houseflies (topical application)", "format": "in vivo, domestic flies of mixed sexes", "conditions": "for % dead after 24 hours: 1 μl acetone solution, dorsal thorax", "protocol": "A. Activity against houseflies\nThe insecticidal tests were effected on domestic flies of mixed sexes by applying a topical solution of 1 μl of acetone solution of (S) α-cyano-3-phenoxybenzyl 2,2-dimethyl-3R-(2,2-dichlorovinyl)-cyclopropane-1R-carboxylate (product A) to the dorsal thorax of the flies. 50 flies were used for each test and the results were determined as the LD50, dose at which 50% of the flies were dead 24 hours after treatment."}, "[2]": {"system": "Spodoptera Littoralis larvae", "test": "Activity against Spodoptera Littoralis larvae (topical application)", "format": "in vivo", "conditions": "for % dead after 24 h / % dead after 48 h: 1 μl acetone solution", "protocol": "B. Activity against Spodoptera Littoralis larvae\nThis test was effected by topical application of 1 μl of an acetone solution of product A on the dorsal thorax of each larva and for each test, 15 caterpillers of Spodoptera Littoralis in the 4th larva stage were used. After treatment, the individuals were placed in an artificial nutritive media (Poitot medium) and the number of dead caterpillers was determined 24 and 48 hours after the treatment to determine the LD50 dose."}, "insects": {"system": "insects", "test": "Insecticidal activity (general statement)", "format": "in vivo", "conditions": "in words"}}, "data": [{"smiles": "CC1(C)[C@H](C(=O)O[C@H](C#N)c2cccc(Oc3ccccc3)c2)[C@@H]1C=C(Cl)Cl", "note": "[product A, (S) α-cyano-3-phenoxybenzyl 2,2-dimethyl-3R-(2,2-dichlorovinyl)-cyclopropane-1R-carboxylate]", "values": [{"measurement": "% dead after 24 hours", "setting": "[1]; dose 0.625 ng, topical", "result": 10.0, "unit": "%"}, {"measurement": "% dead after 24 hours", "setting": "[1]; dose 1.25 ng, topical", "result": 34.5, "unit": "%"}, {"measurement": "% dead after 24 hours", "setting": "[1]; dose 2.5 ng, topical", "result": 68.0, "unit": "%"}, {"measurement": "% dead after 24 hours", "setting": "[1]; dose 3.75 ng, topical", "result": 83.2, "unit": "%"}, {"measurement": "% dead after 24 hours", "setting": "[1]; dose 5 ng, topical", "result": 93.3, "unit": "%"}, {"measurement": "LD50", "setting": "[1]; dose at which 50% of the flies were dead 24 hours after treatment, topical", "result": 1.6, "unit": "ng"}, {"measurement": "effective against domestic flies", "setting": "[1]; in words, experimental tests", "result": "effective against domestic flies"}, {"measurement": "insecticidal activity against houseflies", "setting": "[1]; in words, from Table I", "result": "very high insecticidal activity"}, {"measurement": "% dead after 24 h", "setting": "[2]; dose 0.1562 ng, topical, dorsal thorax, 4th larva stage", "result": 20.5, "unit": "%"}, {"measurement": "% dead after 48 h", "setting": "[2]; dose 0.1562 ng, topical, dorsal thorax, 4th larva stage, 48 h", "result": 27.3, "unit": "%"}, {"measurement": "% dead after 24 h", "setting": "[2]; dose 0.3125 ng, topical, dorsal thorax, 4th larva stage", "result": 48.9, "unit": "%"}, {"measurement": "% dead after 48 h", "setting": "[2]; dose 0.3125 ng, topical, dorsal thorax, 4th larva stage, 48 h", "result": 62.2, "unit": "%"}, {"measurement": "% dead after 24 h", "setting": "[2]; dose 0.625 ng, topical, dorsal thorax, 4th larva stage", "result": 80.0, "unit": "%"}, {"measurement": "% dead after 48 h", "setting": "[2]; dose 0.625 ng, topical, dorsal thorax, 4th larva stage, 48 h", "result": 82.2, "unit": "%"}, {"measurement": "% dead after 24 h", "setting": "[2]; dose 1.25 ng, topical, dorsal thorax, 4th larva stage", "result": 95.6, "unit": "%"}, {"measurement": "% dead after 48 h", "setting": "[2]; dose 1.25 ng, topical, dorsal thorax, 4th larva stage, 48 h", "result": 97.8, "unit": "%"}, {"measurement": "effective against larvae of Spodoptera Littoralis", "setting": "[2]; in words, experimental tests", "result": "effective"}, {"measurement": "LD50 at 48 h", "setting": "[2]; topical, dorsal thorax, 4th larva stage, 48 h", "result": 0.3, "unit": "ng"}, {"measurement": "insecticidal activity", "setting": "insects", "result": "excellent insecticidal activity"}]}]}
